Measured values reported in paper PMC5310922, “A high-throughput phenotypic screen identifies clofazimine as a potential treatment for cryptosporidiosis” (PLoS Neglected Tropical Diseases, 2017).
Like-named read-outs stand apart in the source and are kept apart here.

Key:
HCT-8 (Host cells) = experiment: in vitro
Experimental: (§1) Cells were then plated (5 μL/well) into 1536-well assay plates at a density of 5.5×10^5 cells/mL (2,750 cells/well).
(§2) Plates were then washed twice with phosphate buffered saline (PBS). […] To prevent non-specific binding, the cells were blocked with SuperBlock™ T20 blocking agent (Thermo) for 1 h at room temperature. Cryptosporidium parasites were stained with 1 μg/mL fluorescein isothiocyanate (FITC)-conjugated Vicia villosa lectin (Vector Laboratories) in 1:10 diluted SuperBlock™ in PBS-T, supplemented with 3 μM 4',6-diamidino-2-phenylindole (DAPI) to visualize host cell nuclei. Staining was for 1 h at room temperature in the dark. Finally, cells were washed twice with PBS-T and the plates were sealed with adhesive foil. The plates were imaged with a CellInsight CX5 High Content Screening Platform (Thermo) with a 10× objective. […] For 1536-well format assays (primary screening, triplicate reconfirmation, and dose-response reconfirmation, one microscopic field (802,511.39 μm^2) per well, and for the 384-well washout assay, 4 fields per well were captured. The software identified primary objects (HCT-8 host cells) and spots within allowed distances to the nuclei (Cryptosporidium). Both cytotoxicity against HCT-8 cells (number of nuclei relative to DMSO-treated controls) and Cryptosporidium inhibition (spot counts relative to DMSO-treated controls) were assessed.
(§3) Images were processed by the HCS Studio Scan software, and Selected Object Count (HCT-8 cells) and Spot Count (Cryptosporidium) were analyzed in Genedata Screener (v13.0-Standard). Spot Count and Selected Object Count were normalized to neutral controls minus inhibitors (floxuridine for Spot Count, and puromycin for Selected Object Count). For single-point primary assay plates, an additional run-wise median correction was applied to reduce screen artifacts (e.g. uneven dispense), whereas no correction was applied to triplicate reconfirmation and dose-response plates. For primary screening, a compound is considered a hit by a ≥ 70% reduction in Corrected Spot Count. Compounds that caused moderate cytotoxicity were filtered out (i.e., excluding all Corrected Selected Object Counts ≤ -60%). Dose-response curves were fit with Genedata Analyzer using the Smart Fit function.

Cryptosporidium parvum = experiment: C. parvum proliferation in HCT-8 cells, 48 h high-content imaging assay; format: cell-based, Cryptosporidium parvum (Iowa strain); details: for EC50: 48 h; for EC99 against C. parvum: concentration used in washout assay
[1] = system: Cryptosporidium hominis (TU502); experiment: C. hominis proliferation in HCT-8 cells, 48 h high-content imaging assay; format: cell-based; details: read-out: C. hominis 48H Assay EC50 [µM] (SD; n)
Experimental: Methods for continuous, in vitro cultivation of Cryptosporidium spp. have not been well established. Instead, in vivo oocyst propagation of C. parvum is performed in calves, a more promiscuous Cryptosporidium species for animal and human infections. For C. hominis, gnotobiotic piglets are the primary means of propagation. The calf is the more accessible model, making C. parvum the more convenient species to screen. However, C. hominis is equally clinically relevant with regards to human cryptosporidiosis. […] High purity powders of the 10 filtered C. parvum Bioactives screen hits and both GHCDL screen hits were tested against C. hominis (TU502) to confirm activity against both species.
as §1
C. parvum oocysts (Iowa strain, isolated from infected calves) were purchased from the Sterling Parasitology Laboratory, University of Arizona, and stored at 4°C for ≤ 3 months in an antibiotic solution (0.01% Tween 20 containing 100 U/mL penicillin and 100 μg/mL gentamicin). C. hominis oocysts (TU502, isolated from gnotobiotic piglets) were purchased from the Tzipori Laboratory, Cummings School of Veterinary Medicine, Tufts University, and stored at 4°C for ≤ 2 weeks in an antibiotic solution (100 U/mL penicillin and 100 μg/mL streptomycin). For infection of assay plates, 24 h after cell seeding, oocysts were excysted and prepared for inoculation as previously described. Briefly, the oocysts were diluted into 1 mL pre-warmed 10 mM HCl and then incubated in a 37°C water bath for 10 min. Oocysts were then pelleted at 3,000×g for 1 min in a microcentrifuge (Thermo), and the supernatant was carefully aspirated. Oocysts were resuspended in 2 mM sodium taurocholate in DPBS++ (with 0.9 mM CaCl2 and 0.5 mM MgCl2) and incubated at room temperature for 20 min. After incubation in bile salts, the oocysts were diluted 1:100 and free sporozoites and intact oocysts were enumerated to determine the percentage of excystation.
Plates were then washed twice with phosphate buffered saline (PBS). […] To prevent non-specific binding, the cells were blocked with SuperBlock™ T20 blocking agent (Thermo) for 1 h at room temperature. Cryptosporidium parasites were stained with 1 μg/mL fluorescein isothiocyanate (FITC)-conjugated Vicia villosa lectin (Vector Laboratories) in 1:10 diluted SuperBlock™ in PBS-T, supplemented with 3 μM 4',6-diamidino-2-phenylindole (DAPI) to visualize host cell nuclei. Staining was for 1 h at room temperature in the dark. Finally, cells were washed twice with PBS-T and the plates were sealed with adhesive foil. The plates were imaged with a CellInsight CX5 High Content Screening Platform (Thermo) with a 10× objective. […] The software identified primary objects (HCT-8 host cells) and spots within allowed distances to the nuclei (Cryptosporidium). Both cytotoxicity against HCT-8 cells (number of nuclei relative to DMSO-treated controls) and Cryptosporidium inhibition (spot counts relative to DMSO-treated controls) were assessed.
Images were processed by the HCS Studio Scan software, and Selected Object Count (HCT-8 cells) and Spot Count (Cryptosporidium) were analyzed in Genedata Screener (v13.0-Standard). Spot Count and Selected Object Count were normalized to neutral controls minus inhibitors (floxuridine for Spot Count, and puromycin for Selected Object Count).

HEK293T = HEK293T 72 h cytotoxicity (CellTiter-Glo); format: cell-based, human
Experimental: (§4) Two mammalian cell lines were used for counter-screening for general cytotoxicity of hit compounds: human embryonic kidney cells (HEK293T; ATCC CRL-3216) and human hepatocellular carcinoma cells (HepG2; ATCC HB-8065). […] Compounds were pre-spotted into tissue culture-treated white solid-bottomed 1536-well plates (Greiner) in a 1:3 dose-response dilution (top concentration 20 μM). HEK293T and HepG2 cells were diluted to 75×10^3 cells/mL and 150×10^3 cells/mL, respectively, and 5 μL/well were dispensed into assay plates with a MultiFlo FX Multi-Mode Dispenser (Biotek). […] At the completion of the assay, CellTiter-Glo (Promega) was prepared at 1:2 (reagent:water) of the manufacturer’s instructions, and 2 μL were dispensed into each well. After a 5 min incubation at room temperature, luminescence readings were measured with an EnVision Multilabel Plate Reader (Perkin Elmer). […] were uploaded into Genedata Screener (v13.0-Standard), and data normalized to DMSO- and puromycin-treated wells. A four-parameter non-linear regression curve fit was applied to dose-response data using Genedata to determine the half maximal cytotoxic concentration (CC50) of each compound.

HepG2 = HepG2 72 h cytotoxicity (CellTiter-Glo); format: cell-based, human
Experimental: as §4

in vitro = details: human
Experimental: as §1, §2, §3

[2] = HEK293T 72 h cytotoxicity (CellTiter-Glo); format: cell-based, human; details: human
Experimental: as §4

[3] = HepG2 72 h cytotoxicity (CellTiter-Glo); format: cell-based, human; details: human
Experimental: as §4

C. parvum [4] = experiment: Washout assay: 3-h treatments over the asexual life cycle of C. parvum
Experimental: We examined short, three-hour compound treatments of in vitro cultures, followed by compound washout, that covered the complete asexual life cycle, believed to be 13–15 h post invasion [36]. […] The treatment interval lasted 3 h before washout with fresh medium; infected cells were allowed to grow until 48 h post infection before fixation. […] As CFZ is very lipophilic, we sought to determine whether intracellular accumulation was affecting the strong inhibition across each time point.
Infected cells were treated in six 3-h increments over the course of 15 h (the presumed in vitro asexual lifecycle of C. parvum). HCT-8 cells were seeded (25 μL/well) into clear-bottomed 384-well plates (Greiner) at a density of 6.0×10^5 cells/mL (15,000 cells/well) in assay medium, and allowed to grow 24 h at 37°C with 5% CO2 in a humidified tissue culture incubator, covered with a custom metal lid (The Genomics Institute of the Novartis Research Foundation) to reduce evaporation. After 24 h, and 2 h before infecting with C. parvum oocysts (time -2 hpi), the treatment time course was initiated. […] DMSO was used as a negative control. Cell medium was removed from designated wells and replaced with medium containing either compound or DMSO. […] Plates were then spun at 150×g for 3 min, and kept at 37°C with 5% CO2 in a humidified tissue culture incubator during drug treatment intervals. At the end of each 3 h time point, infected cells were carefully washed three times with fresh, pre-warmed assay medium, and the next set of wells for the subsequent time point were treated. The final time point extended to 18 h, to cover re-invasion of merozoites into new HCT-8 cells. After the final compound treatment was washed off, infected cells were allowed to grow until 48 h post infection.

C. parvum [5] = experiment: Host cell 3-h pre-treatment, with or without wash, then C. parvum infection; format: cell-based, Cryptosporidium parvum; details: for EC50: Cryptosporidium parvum, host cells pretreated 3 h, C. parvum, 48 hpi
Experimental: A set of parallel wells were also treated and not washed prior to infection. 48 hpi, infected cells were imaged as described above, and EC50s for each compound pre- and post-wash were determined.

[6] = in HCT-8 cells, value (SD; n), read-out: C. parvum 48H Assay EC50 [µM] (SD; n)
[7] = in HCT-8 cells, 48 h, value (SD; n)
[8] = read-out: HCT-8 (Host cells) 48H Assay CC50 [µM] (SD; n), 48 h, value (SD; n)
[9] = 72 h, value (SD; n), read-out: HEK293T 72H Cytotoxicity CC50 [µM] (SD; n)
[10] = 72 h, value (SD; n), read-out: HepG2 72H Cytotoxicity CC50 [µM] (SD; n)
[11] = Cryptosporidium parvum, HCT-8 cells, read-out: EC50 against C. parvum
[12] = Cryptosporidium parvum, in HCT-8 cells, value (SD; n), read-out: C. parvum 48H Assay EC50 [µM] (SD; n)
[13] = Cryptosporidium hominis, in HCT-8 cells, 48 h, value (SD; n)
[14] = HEK293T cells, 72 h, value (SD; n), read-out: HEK293T 72H Cytotoxicity CC50 [µM] (SD; n)
[15] = HepG2 cells, 72 h, value (SD; n), read-out: HepG2 72H Cytotoxicity CC50 [µM] (SD; n)

Compound: Momelotinib [Momelotinib; CYT-387]
- CC50 (HCT-8 (Host cells)): 6.05 µM
- EC50 (Cryptosporidium parvum; [6]): 0.37 µM
- EC50 [1, 7]: 0.389 µM
- CC50 (HEK293T): 19 µM
- CC50 (HepG2): 7.76 µM

Compound: Puromycin
- CC50 (HCT-8 (Host cells); [8]): 3.15 µM
- EC50 (Cryptosporidium parvum; [6]): 0.482 µM
- EC50 [1, 7]: 0.742 µM
- CC50 (HEK293T; [9]): 0.519 µM
- CC50 (HepG2; [10]): 1.13 µM

Compound: Vorinostat [Vorinostat; SAHA]
- CC50 (HCT-8 (Host cells)): 1.84 µM
- CC50 (HEK293T): 4.27 µM
- CC50 (HepG2): 1.07 µM

Compound: CC[C@@]1([C@@H]2O[C@@H]([C@H]3O[C@@](O)(CO)[C@H](C)C[C@@H]3C)C[C@@H]2C)CC[C@H]([C@]2(C)CC[C@]3(C[C@H](O)[C@@H](C)[C@@H]([C@@H](C)[C@@H](OC)[C@H](C)C(=O)O)O3)O2)O1 [Monensin sodium]
- CC50 at 48 h (in vitro): > 12500 nM
- EC50 (Cryptosporidium parvum; [11]): 0.007 µM
- EC50 (Cryptosporidium parvum; [12]): 0.00704 µM
- EC50 ([1]; Cryptosporidium hominis, HCT-8, 48 h): 0.0103 µM
- CC50 at 72 h [2, 9]: 0.516 µM
- CC50 at 72 h [3, 10]: 1.65 µM

Compound: Oc1ccc(Cl)cc1NC(S)NC(O)c1cccc(Br)c1 (stereo not drawn) [NSC215721]
- CC50 at 48 h (in vitro; HCT-8 cells): > 12500 nM
- EC50 (Cryptosporidium parvum; [12]): 0.278 µM
- EC50 [1, 13]: 0.176 µM
- CC50 at 72 h [2, 14]: > 20 µM
- CC50 at 72 h [3, 15]: > 20 µM

Compound: Nitazoxanide
- CC50 (HCT-8 (Host cells); [8]): > 10 µM
- EC50 (Cryptosporidium parvum; HCT-8 cells, read-out: EC50 against C. parvum): 2.8 µM
- EC99 against C. parvum (Cryptosporidium parvum): 8 µM
- EC50 (Cryptosporidium parvum; [6]): 2.84 µM
- EC50 [1, 7]: 2.82 µM
- CC50 (HEK293T; [9]): > 48 µM
- inhibition of parasite growth at all time points other than 10–13 h post infection (C. parvum [4]; 3-h treatment then washout, even at 3×EC99): < 60%
- CC50 (HepG2; [10]): > 48 µM

Compound: COc1cc(Nc2ncc(F)c(Nc3ccc4c(n3)NC(O)C(C)(C)O4)n2)cc(OC)c1OC (stereo not drawn) [R406]
- CC50 at 48 h (in vitro; HCT-8 cells): > 12500 nM
- EC50 (Cryptosporidium parvum; [12]): 0.254 µM
- EC50 [1, 13]: 0.647 µM
- CC50 at 72 h [2, 14]: > 20 µM
- CC50 at 72 h [3, 15]: 0.596 µM

Compound: Cn1c2ccccc2c2c3c(c4c5ccccc5n(CCC#N)c4c21)CNC3O (stereo not drawn) [Gö 6976]
- CC50 at 48 h (in vitro; HCT-8 cells): > 12500 nM
- EC50 (Cryptosporidium parvum; [11]): 0.0025 µM
- EC50 (Cryptosporidium parvum; [12]): 0.00245 µM
- EC50 [1, 13]: 0.00496 µM
- CC50 at 72 h [2, 14]: 0.124 µM
- CC50 at 72 h [3, 15]: > 20 µM

Compound: Rocilinostat [Rocilinostat; ACY-1215]
- CC50 (HCT-8 (Host cells)): 11.4 µM
- EC50 (Cryptosporidium parvum; [6]): 0.356 µM
- EC50 [1, 7]: 0.451 µM
- CC50 (HEK293T): 12.1 µM
- CC50 (HepG2): 0.849 µM

Compound: OC1CCCC2Nc3nonc3NC(c3ccc(Cl)cc3Cl)C12 (stereo not drawn) [GHCDL-1]
- CC50 at 48 h (in vitro; HCT-8 cells): > 12500 nM
- EC50 (Cryptosporidium parvum; [11]): 1.42 µM
- EC50 [1, 13]: 2.82 µM
- CC50 at 72 h [2, 14]: > 20 µM
- CC50 at 72 h [3, 15]: > 20 µM

Compound: O=c1[nH]c(=O)n([C@H]2C[C@H](O)[C@@H](CO)O2)cc1F [5-fluoro-2'-deoxyuridine; Floxuridine, 5-fluoro-2'-deoxyuridine]
- CC50 at 48 h (in vitro): 154 nM
- EC50 (Cryptosporidium parvum; [11]): 0.017 µM
- EC50 (Cryptosporidium parvum; [12]): 0.0172 µM
- EC99 against C. parvum (Cryptosporidium parvum): 0.1 µM
- EC50 [1, 13]: 0.0182 µM
- CC50 at 72 h [2]: 0.0471 µM
- inhibition of C. parvum proliferation, every 3-h time point of the asexual life cycle (C. parvum [4]; treated at EC99 for 3 h, washout, read at 48 hpi): strong inhibition of growth across all time points
- EC50 (C. parvum [5]; read-out: Post-wash EC50): 9.4 nM
- EC50 (C. parvum [5]; read-out: Pre-wash EC50): 53 nM
- inhibition of C. parvum proliferation after compound removal by repeated washes (C. parvum [5]; host cell pre-treatment, dose-response): near equipotent inhibition
- CC50 at 72 h [3]: 0.214 µM

Compound: Cc1csc(NCC(O)c2c[nH]c3ccccc23)n1 (stereo not drawn) [GHCDL-2]
- CC50 at 48 h (in vitro; HCT-8 cells): > 12500 nM
- EC50 (Cryptosporidium parvum; [11]): 0.293 µM
- EC50 [1, 13]: 0.946 µM
- CC50 at 72 h [2, 14]: > 20 µM
- CC50 at 72 h [3, 15]: > 20 µM
